Measured values taken from the NIST ThermoML archive (doi:10.1016/j.jct.2006.05.008).
± gives the expanded uncertainty stated by the source.

Assay: molar heat capacity at constant pressure
Details: 101.33 kPa

CCC[n+]1ccn(C)c1.[Br-] [1-methyl-3-propylimidazolium bromide]
Details	molar heat capacity at constant pressure [J/K/mol]
79.74 K, Crystal, Vacuum adiabatic calorimetry	92.59 ± 0.23
79.94 K, Crystal, Vacuum adiabatic calorimetry	92.76 ± 0.23
81.02 K, Metastable crystal, Small (less than 1 g) adiabatic calorimetry	99.02 ± 0.59
81.27 K, Crystal, Vacuum adiabatic calorimetry	93.84 ± 0.23
81.34 K, Glass, Small (less than 1 g) adiabatic calorimetry	99.34 ± 0.6
82.19 K, Crystal, Vacuum adiabatic calorimetry	94.55 ± 0.23
82.6 K, Crystal, Vacuum adiabatic calorimetry	94.86 ± 0.23
83.24 K, Metastable crystal, Small (less than 1 g) adiabatic calorimetry	100.47 ± 0.6
83.87 K, Glass, Small (less than 1 g) adiabatic calorimetry	101.14 ± 0.61
83.93 K, Crystal, Vacuum adiabatic calorimetry	95.59 ± 0.23
84.2 K, Crystal, Vacuum adiabatic calorimetry	95.76 ± 0.23
85.27 K, Crystal, Vacuum adiabatic calorimetry	96.54 ± 0.23
85.49 K, Metastable crystal, Small (less than 1 g) adiabatic calorimetry	101.89 ± 0.61
86.22 K, Crystal, Vacuum adiabatic calorimetry	97.26 ± 0.24
86.42 K, Glass, Small (less than 1 g) adiabatic calorimetry	103.04 ± 0.62
86.6 K, Crystal, Vacuum adiabatic calorimetry	97.57 ± 0.24
87.75 K, Metastable crystal, Small (less than 1 g) adiabatic calorimetry	103.44 ± 0.62
87.94 K, Crystal, Vacuum adiabatic calorimetry	98.49 ± 0.24
88.23 K, Crystal, Vacuum adiabatic calorimetry	98.81 ± 0.24
89 K, Glass, Small (less than 1 g) adiabatic calorimetry	105.01 ± 0.63
89.27 K, Crystal, Vacuum adiabatic calorimetry	99.53 ± 0.25
90.04 K, Metastable crystal, Small (less than 1 g) adiabatic calorimetry	104.98 ± 0.62
90.61 K, Crystal, Vacuum adiabatic calorimetry	100.47 ± 0.3
91.6 K, Glass, Small (less than 1 g) adiabatic calorimetry	106.89 ± 0.63
91.95 K, Crystal, Vacuum adiabatic calorimetry	101.38 ± 0.3
92.27 K, Crystal, Vacuum adiabatic calorimetry	101.66 ± 0.3
92.34 K, Metastable crystal, Small (less than 1 g) adiabatic calorimetry	106.48 ± 0.63
93.29 K, Crystal, Vacuum adiabatic calorimetry	102.41 ± 0.3
94.22 K, Glass, Small (less than 1 g) adiabatic calorimetry	108.72 ± 0.64
94.29 K, Crystal, Vacuum adiabatic calorimetry	103.09 ± 0.3
94.64 K, Crystal, Vacuum adiabatic calorimetry	103.36 ± 0.3
94.66 K, Metastable crystal, Small (less than 1 g) adiabatic calorimetry	107.94 ± 0.63
95.98 K, Crystal, Vacuum adiabatic calorimetry	104.28 ± 0.31
96.31 K, Crystal, Vacuum adiabatic calorimetry	104.51 ± 0.31
96.86 K, Glass, Small (less than 1 g) adiabatic calorimetry	110.58 ± 0.64
97 K, Metastable crystal, Small (less than 1 g) adiabatic calorimetry	109.41 ± 0.64
97.33 K, Crystal, Vacuum adiabatic calorimetry	105.24 ± 0.31
98.33 K, Crystal, Vacuum adiabatic calorimetry	105.88 ± 0.31
98.67 K, Crystal, Vacuum adiabatic calorimetry	106.05 ± 0.31
99.35 K, Metastable crystal, Small (less than 1 g) adiabatic calorimetry	110.84 ± 0.64
99.51 K, Glass, Small (less than 1 g) adiabatic calorimetry	112.37 ± 0.65
100.03 K, Crystal, Vacuum adiabatic calorimetry	106.92 ± 0.31
100.36 K, Crystal, Vacuum adiabatic calorimetry	107.18 ± 0.31
101.38 K, Crystal, Vacuum adiabatic calorimetry	107.81 ± 0.31
101.71 K, Metastable crystal, Small (less than 1 g) adiabatic calorimetry	112.27 ± 0.65
102.18 K, Glass, Small (less than 1 g) adiabatic calorimetry	114.14 ± 0.66
102.39 K, Crystal, Vacuum adiabatic calorimetry	108.44 ± 0.31
102.74 K, Crystal, Vacuum adiabatic calorimetry	108.69 ± 0.31
104.09 K, Crystal, Vacuum adiabatic calorimetry	109.46 ± 0.31
104.09 K, Metastable crystal, Small (less than 1 g) adiabatic calorimetry	113.67 ± 0.65
104.42 K, Crystal, Vacuum adiabatic calorimetry	109.77 ± 0.31
104.87 K, Glass, Small (less than 1 g) adiabatic calorimetry	115.91 ± 0.66
105.45 K, Crystal, Vacuum adiabatic calorimetry	110.36 ± 0.31
106.45 K, Crystal, Vacuum adiabatic calorimetry	111.06 ± 0.31
106.47 K, Metastable crystal, Small (less than 1 g) adiabatic calorimetry	115.09 ± 0.66
106.81 K, Crystal, Vacuum adiabatic calorimetry	111.31 ± 0.31
107.56 K, Glass, Small (less than 1 g) adiabatic calorimetry	117.68 ± 0.67
108.17 K, Crystal, Vacuum adiabatic calorimetry	112.14 ± 0.31
108.48 K, Crystal, Vacuum adiabatic calorimetry	112.42 ± 0.31
108.88 K, Metastable crystal, Small (less than 1 g) adiabatic calorimetry	116.5 ± 0.67
109.53 K, Crystal, Vacuum adiabatic calorimetry	112.92 ± 0.31
110.28 K, Glass, Small (less than 1 g) adiabatic calorimetry	119.33 ± 0.68
110.52 K, Crystal, Vacuum adiabatic calorimetry	113.6 ± 0.31
110.89 K, Crystal, Vacuum adiabatic calorimetry	113.71 ± 0.31
111.29 K, Metastable crystal, Small (less than 1 g) adiabatic calorimetry	117.82 ± 0.67
112.25 K, Crystal, Vacuum adiabatic calorimetry	114.5 ± 0.31
112.57 K, Crystal, Vacuum adiabatic calorimetry	114.76 ± 0.32
113 K, Glass, Small (less than 1 g) adiabatic calorimetry	121 ± 0.69
113.61 K, Crystal, Vacuum adiabatic calorimetry	115.32 ± 0.32
113.71 K, Metastable crystal, Small (less than 1 g) adiabatic calorimetry	119.15 ± 0.68
114.61 K, Crystal, Vacuum adiabatic calorimetry	115.9 ± 0.32
114.97 K, Crystal, Vacuum adiabatic calorimetry	116.19 ± 0.32
115.74 K, Glass, Small (less than 1 g) adiabatic calorimetry	122.66 ± 0.69
116.15 K, Metastable crystal, Small (less than 1 g) adiabatic calorimetry	120.5 ± 0.68
116.34 K, Crystal, Vacuum adiabatic calorimetry	116.93 ± 0.32
116.65 K, Crystal, Vacuum adiabatic calorimetry	117.03 ± 0.32
117.71 K, Crystal, Vacuum adiabatic calorimetry	117.69 ± 0.32
118.48 K, Glass, Small (less than 1 g) adiabatic calorimetry	124.31 ± 0.7
118.59 K, Metastable crystal, Small (less than 1 g) adiabatic calorimetry	121.83 ± 0.69
118.69 K, Crystal, Vacuum adiabatic calorimetry	118.24 ± 0.32
119.07 K, Crystal, Vacuum adiabatic calorimetry	118.47 ± 0.32
120.44 K, Crystal, Vacuum adiabatic calorimetry	119.22 ± 0.32
120.73 K, Crystal, Vacuum adiabatic calorimetry	119.36 ± 0.32
121.04 K, Metastable crystal, Small (less than 1 g) adiabatic calorimetry	123.15 ± 0.69
121.24 K, Glass, Small (less than 1 g) adiabatic calorimetry	125.94 ± 0.7
121.82 K, Crystal, Vacuum adiabatic calorimetry	120.01 ± 0.32
122.78 K, Crystal, Vacuum adiabatic calorimetry	120.51 ± 0.32
123.19 K, Crystal, Vacuum adiabatic calorimetry	120.74 ± 0.32
123.49 K, Metastable crystal, Small (less than 1 g) adiabatic calorimetry	124.47 ± 0.7
124.01 K, Glass, Small (less than 1 g) adiabatic calorimetry	127.58 ± 0.71
124.56 K, Crystal, Vacuum adiabatic calorimetry	121.49 ± 0.32
124.82 K, Crystal, Vacuum adiabatic calorimetry	121.64 ± 0.32
125.93 K, Crystal, Vacuum adiabatic calorimetry	122.24 ± 0.32
125.95 K, Metastable crystal, Small (less than 1 g) adiabatic calorimetry	125.81 ± 0.7
126.78 K, Glass, Small (less than 1 g) adiabatic calorimetry	129.18 ± 0.72
126.87 K, Crystal, Vacuum adiabatic calorimetry	122.8 ± 0.32
127.3 K, Crystal, Vacuum adiabatic calorimetry	122.93 ± 0.32
128.42 K, Metastable crystal, Small (less than 1 g) adiabatic calorimetry	127.1 ± 0.71
128.67 K, Crystal, Vacuum adiabatic calorimetry	123.68 ± 0.32
128.92 K, Crystal, Vacuum adiabatic calorimetry	123.91 ± 0.32
129.56 K, Glass, Small (less than 1 g) adiabatic calorimetry	130.84 ± 0.72
130.04 K, Crystal, Vacuum adiabatic calorimetry	124.38 ± 0.32
130.89 K, Metastable crystal, Small (less than 1 g) adiabatic calorimetry	128.38 ± 0.71
130.97 K, Crystal, Vacuum adiabatic calorimetry	125.11 ± 0.33
131.41 K, Crystal, Vacuum adiabatic calorimetry	125.15 ± 0.33
132.34 K, Glass, Small (less than 1 g) adiabatic calorimetry	132.48 ± 0.73
132.79 K, Crystal, Vacuum adiabatic calorimetry	125.91 ± 0.33
133.03 K, Crystal, Vacuum adiabatic calorimetry	126.19 ± 0.33
133.37 K, Metastable crystal, Small (less than 1 g) adiabatic calorimetry	129.68 ± 0.72
134.16 K, Crystal, Vacuum adiabatic calorimetry	126.6 ± 0.33
135.08 K, Crystal, Vacuum adiabatic calorimetry	127.08 ± 0.33
135.13 K, Glass, Small (less than 1 g) adiabatic calorimetry	134.09 ± 0.74
135.53 K, Crystal, Vacuum adiabatic calorimetry	127.32 ± 0.33
135.85 K, Metastable crystal, Small (less than 1 g) adiabatic calorimetry	130.98 ± 0.72
136.16 K, Crystal, Vacuum adiabatic calorimetry	127.66 ± 0.33
136.91 K, Crystal, Vacuum adiabatic calorimetry	128.04 ± 0.33
137.14 K, Crystal, Vacuum adiabatic calorimetry	128.2 ± 0.33
137.92 K, Glass, Small (less than 1 g) adiabatic calorimetry	135.74 ± 0.74
138.28 K, Crystal, Vacuum adiabatic calorimetry	128.82 ± 0.33
138.34 K, Metastable crystal, Small (less than 1 g) adiabatic calorimetry	132.27 ± 0.73
138.66 K, Crystal, Vacuum adiabatic calorimetry	129 ± 0.33
139.66 K, Crystal, Vacuum adiabatic calorimetry	129.53 ± 0.33
140.72 K, Crystal, Vacuum adiabatic calorimetry	130.08 ± 0.33
140.72 K, Glass, Small (less than 1 g) adiabatic calorimetry	137.41 ± 0.75
140.83 K, Metastable crystal, Small (less than 1 g) adiabatic calorimetry	133.54 ± 0.73
141.03 K, Crystal, Vacuum adiabatic calorimetry	130.25 ± 0.33
142.4 K, Crystal, Vacuum adiabatic calorimetry	130.91 ± 0.33
142.78 K, Crystal, Vacuum adiabatic calorimetry	131.16 ± 0.33
143.33 K, Metastable crystal, Small (less than 1 g) adiabatic calorimetry	134.81 ± 0.74
143.52 K, Glass, Small (less than 1 g) adiabatic calorimetry	139.08 ± 0.76
143.79 K, Crystal, Vacuum adiabatic calorimetry	131.72 ± 0.33
144.84 K, Crystal, Vacuum adiabatic calorimetry	132.23 ± 0.33
145.17 K, Crystal, Vacuum adiabatic calorimetry	132.41 ± 0.33
145.82 K, Metastable crystal, Small (less than 1 g) adiabatic calorimetry	136.13 ± 0.74
